ChEMBL document CHEMBL3988442, “University of Dundee, Small-Polar-MMV Screening Library” (2021)
Several values for one entry are separate records, joined by “and”; a condition that tells them apart may be missing. Equal entries are not always repeated.

How the values were obtained:
[1] = target: T1, Ubiquitin-activating enzyme e1, putative (Leishmania donovani (strain BPK282A1), UniProt E9BSI1); assay: Leishmania donovani Ubiquitin Activating Enzyme (LdE1); type: functional
T1 sequence (E9BSI1 whole entry): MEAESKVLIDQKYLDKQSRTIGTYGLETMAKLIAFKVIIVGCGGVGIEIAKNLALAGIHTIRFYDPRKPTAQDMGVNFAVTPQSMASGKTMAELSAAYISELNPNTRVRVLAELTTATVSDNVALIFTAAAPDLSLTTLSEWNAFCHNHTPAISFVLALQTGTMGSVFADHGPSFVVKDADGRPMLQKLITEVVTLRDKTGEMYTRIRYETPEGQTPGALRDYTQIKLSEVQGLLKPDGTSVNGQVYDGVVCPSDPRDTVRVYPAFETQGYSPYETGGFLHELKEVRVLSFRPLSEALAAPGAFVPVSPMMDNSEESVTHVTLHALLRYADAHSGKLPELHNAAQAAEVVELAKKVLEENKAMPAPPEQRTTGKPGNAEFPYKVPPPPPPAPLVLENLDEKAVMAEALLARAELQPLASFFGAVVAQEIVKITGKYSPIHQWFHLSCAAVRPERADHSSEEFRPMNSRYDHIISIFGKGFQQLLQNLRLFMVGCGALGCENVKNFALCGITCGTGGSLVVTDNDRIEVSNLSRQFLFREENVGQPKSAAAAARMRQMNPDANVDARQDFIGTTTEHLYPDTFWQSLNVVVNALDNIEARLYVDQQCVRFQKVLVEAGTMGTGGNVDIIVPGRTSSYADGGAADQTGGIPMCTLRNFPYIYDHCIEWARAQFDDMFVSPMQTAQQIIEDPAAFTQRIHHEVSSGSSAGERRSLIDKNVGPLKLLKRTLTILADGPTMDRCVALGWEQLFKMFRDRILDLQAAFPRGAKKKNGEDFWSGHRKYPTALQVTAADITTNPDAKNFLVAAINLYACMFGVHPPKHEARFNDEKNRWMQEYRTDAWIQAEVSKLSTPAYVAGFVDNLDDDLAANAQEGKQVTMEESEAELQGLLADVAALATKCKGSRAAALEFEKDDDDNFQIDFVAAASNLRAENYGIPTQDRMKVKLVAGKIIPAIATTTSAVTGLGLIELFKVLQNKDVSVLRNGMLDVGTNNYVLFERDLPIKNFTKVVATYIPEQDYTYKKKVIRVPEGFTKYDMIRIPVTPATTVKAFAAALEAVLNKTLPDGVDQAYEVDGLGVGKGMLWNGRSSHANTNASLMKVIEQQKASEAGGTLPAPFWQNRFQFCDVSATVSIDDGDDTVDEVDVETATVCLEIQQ

Plasmodium falciparum = assay: Plasmodium falciparum sporozoite viability assay; type: functional, organism-based; conditions: for IC50: Plasmodium falciparum
Histidine--tRNA ligase = target: T2, Histidine--tRNA ligase (Leishmania infantum, UniProt A4I591); assay: Leishmania infantum Histidine tRNA synthetase (LdHisRS); type: functional
T2 sequence (A4I591 whole entry): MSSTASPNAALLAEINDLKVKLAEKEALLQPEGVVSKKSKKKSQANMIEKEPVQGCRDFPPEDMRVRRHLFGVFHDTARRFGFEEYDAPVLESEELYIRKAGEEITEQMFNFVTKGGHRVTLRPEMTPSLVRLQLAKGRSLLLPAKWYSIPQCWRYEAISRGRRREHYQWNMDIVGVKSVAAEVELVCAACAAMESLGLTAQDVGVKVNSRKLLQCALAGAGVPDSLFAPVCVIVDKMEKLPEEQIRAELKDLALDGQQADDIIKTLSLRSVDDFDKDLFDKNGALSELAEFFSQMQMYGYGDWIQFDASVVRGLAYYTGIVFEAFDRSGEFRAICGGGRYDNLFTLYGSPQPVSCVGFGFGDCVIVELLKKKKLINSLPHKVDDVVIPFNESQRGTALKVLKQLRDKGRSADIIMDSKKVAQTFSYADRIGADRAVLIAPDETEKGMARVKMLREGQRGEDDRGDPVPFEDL

[2] = test system: Mycobacterium tuberculosis; assay: Cornell M. t heat shock assay; type: functional, organism-based; conditions: Mycobacterium tuberculosis
[3] = In vitro enzyme assay to detect hydrolysis of chlorophenol red-beta-D-[…] directly proportional to the number of Toxoplasma stably expressing beta-galactosidase; type: functional, organism-based, Toxoplasma gondii; conditions: Toxoplasma gondii
Leishmania donovani = assay: Leishmania intramacrophage assay; type: functional, organism-based; conditions: Leishmania donovani
[4] = target: T3, Coenzyme A biosynthesis bifunctional protein CoaBC (Mycobacterium tuberculosis (strain ATCC 25618 / H37Rv), UniProt P9WNZ1); assay: Biomol Green assay for MtCoaBC inhibitor, OD650 read; type: functional
T3 sequence (P9WNZ1 whole entry): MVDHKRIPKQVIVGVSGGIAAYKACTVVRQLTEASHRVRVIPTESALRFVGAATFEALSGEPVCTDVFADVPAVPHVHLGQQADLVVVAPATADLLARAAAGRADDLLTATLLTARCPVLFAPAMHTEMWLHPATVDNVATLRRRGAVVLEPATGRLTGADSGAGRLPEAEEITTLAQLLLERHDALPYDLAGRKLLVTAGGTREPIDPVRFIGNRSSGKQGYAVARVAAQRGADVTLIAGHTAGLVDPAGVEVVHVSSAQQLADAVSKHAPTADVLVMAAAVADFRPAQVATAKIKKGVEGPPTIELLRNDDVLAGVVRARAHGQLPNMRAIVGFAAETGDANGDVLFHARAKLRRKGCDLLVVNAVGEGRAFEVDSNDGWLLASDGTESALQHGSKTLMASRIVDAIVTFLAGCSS

Structure (SMILES) | IC50 [1] [µM] | also measured
CC(C)C(NC(=O)NCCNc1ncccn1)c1cccs1 (centres undefined) | > 100 | 
CC(C)N1CCC(Cc2cc(-c3cccc(C(=O)O)c3)ncn2)C1 (centres undefined) | > 100 | 
CCC1CCCCN1Cc1ncc(C(C)(C)C)o1 (centres undefined) | > 100 | 
COc1cc(F)c(NCc2nc3ccccc3n2C)cc1OC |  | IC50 (Plasmodium falciparum): 0.26 µM; IC50 (Histidine--tRNA ligase): 59.7 µM and 57.6 µM
Cc1cnn(CC(C)NCc2nc(-c3cccs3)no2)c1 (centres undefined) | > 100 | 
O=C(NCc1ccccc1Cn1cncn1)C1CCCC1 | > 100 | 
O=C(c1ncccn1)N1C[C@@H]2COC[C@]2(COCc2cccnc2)C1 | > 100 | 
O=C(Cc1ccsc1)N1C[C@@H]2COC[C@]2(COCc2cccnc2)C1 | > 100 | 
COc1ccc(-c2noc(CNC(C)Cn3cccn3)n2)c(OC)c1 (centres undefined) | > 100 | 
CC(C)(C)c1cnc(CN2CCC[C@H]2CO)o1 | > 100 | 
CC(C)c1nc2n(n1)CC(NCc1nc(C3CC3)no1)CC2 (centres undefined) | > 100 | 
O=C(CC1CCCO1)NCc1ccccc1Cn1cncn1 (centres undefined) | > 100 | 
CC(O)CN1CCN(C(=O)c2ccc(N(C)C)nc2)CC1 (centres undefined) | > 100 | 
CC(C)C(NC(=O)NCCNc1cnccn1)c1cccs1 (centres undefined) | > 100 | 
CC(C)c1nc2n(n1)CC(NCc1nnc(-c3ccco3)o1)CC2 (centres undefined) | > 100 | 
Cn1cc(C(=O)N2C[C@@H]3COC[C@]3(COCc3cccnc3)C2)cn1 | > 100 | 
CC[C@H]1NCCC[C@]12CCC(=O)N2Cc1ccncc1 | > 100 | 
COCCC(=O)N1C[C@@H]2COC[C@]2(COCc2cccnc2)C1 | > 100 | 
COc1cc(CNCc2ccnc(N3CCCCC3)c2)cc(OC)c1 | > 100 | 
Cc1cccc(NC2CCN(C(=O)Nc3ccc(F)c(F)c3)CC2)n1 |  | IC50 (Plasmodium falciparum): 7.62 µM; IC50 [2]: > 49 µM
Cc1nc(CN2CCCN(C(=O)C(C)OCC3CC3)CC2)cs1 (centres undefined) | > 100 | 
Cn1ccnc1CN1CCCN(C(=O)COCC2CC2)CC1 | > 100 | 

Structure (SMILES) | IC50 [1] [µM] | also measured
CC[C@@H]1N(C)CCC[C@]12CCC(=O)N2Cc1ccncc1 | > 100 | 
CC(=O)Nc1ncc(S(=O)(=O)Nc2ccc3c(c2)OCCO3)s1 |  | pIC50 (Plasmodium falciparum): 6.905; IC50 (Plasmodium falciparum): 0.144 µM; IC50 [3]: > 50.1 µM
CC(Oc1ccccc1)C(=O)N1CCCN(Cc2nccn2C)CC1 (centres undefined) | > 100 | 
Cc1cc(C(=O)N2C[C@@H]3COC[C@]3(COCc3cccnc3)C2)no1 | > 100 | 
CC(OCC1CC1)C(=O)N1CCCN(Cc2nccn2C(C)C)CC1 (centres undefined) | > 100 | 
CC(O)CN1CCN(C(=O)c2ccc(N3CCCC3)nn2)CC1 (centres undefined) | > 100 | 
Cc1nc(C)n(CC2CCCN(Cc3ncc(C(C)(C)C)o3)C2)n1 (centres undefined) | > 100 | 
Cc1cc(C)n(CC2CCCN2Cc2ncc(C(C)(C)C)o2)n1 (centres undefined) | > 100 | 
CC(NC(=O)NCCNc1ncccn1)c1cccs1 (centres undefined) | > 100 | 
O=C(NCc1ccccc1Cn1cncn1)C1CCCCC1 | > 100 | 
CC(C)C(NC(=O)Nc1ccccn1)c1cccs1 (centres undefined) | > 100 | 
Cc1nc(C(=O)N2C[C@@H]3COC[C@]3(COCc3cccnc3)C2)cs1 | > 100 | 
CC(Cn1cccn1)NCc1nc(-c2ccccc2Cl)no1 (centres undefined) | > 100 | 
O=C(CCNC(=O)C1CCCC1)NCc1ccccc1Cn1ccnc1 | > 100 | 
CS(=O)(=O)c1ccc(CNC(=O)Nc2cn[nH]c2)cc1 | > 100 | 
Cc1csc(NC(=O)c2cnc(C3CCCN3)cn2)n1.Cl (centres undefined) |  | pIC50 (Plasmodium falciparum): 7.11; IC50 (Plasmodium falciparum): 0.153 µM; IC50 [2]: > 100 µM
CC(Cn1cccn1)NCc1nc(-c2ccccn2)no1 (centres undefined) | > 100 | 
Cc1ccc(C(=O)N2C[C@@H]3COC[C@]3(COCc3cccnc3)C2)cn1 | > 100 | 
Cc1nc(C)n(CC2CCCCN2Cc2nnc(C3CC3)o2)n1 (centres undefined) | > 100 | 
CC(Cn1cccn1)NCc1nc(-c2ccco2)no1 (centres undefined) | > 100 | 
CCn1nc2c(cc1=O)CN(Cc1nnc(C3CC3)o1)CC2 | > 100 | 
c1csc(-c2noc(CNCCn3cccn3)n2)c1 | > 100 | 

Structure (SMILES) | IC50 [1] [µM] | also measured
CC(C)c1nc2n(n1)CC(NCc1nnc(C3CC3)o1)CC2 (centres undefined) | > 100 | 
CCC(O)CN1CCN(C(=O)c2ccc(N(C)C)nn2)CC1 (centres undefined) | > 100 | 
CC(Cn1cccn1)NCc1nc(-c2cccc(Cl)c2)no1 (centres undefined) | > 100 | 
CC[C@H]1N(C)CCC[C@]12CCC(=O)N2Cc1ccncc1 | > 100 | 
O=C(NCc1ccccc1Cn1cncn1)C1CC1 | > 100 | 
Cc1ncc(C(=O)NCCNc2ncccc2C#N)s1 | > 100 | 
O=C(CCNC(=O)C1CCCC1)NCc1ccccc1Cn1cncn1 | > 100 | 
c1cnc(-c2nc(CN3CCN(CC4CC4)CC3)cs2)nc1 |  | IC50 (Leishmania donovani): > 50.1 µM; pIC50 (Plasmodium falciparum): 5.511; IC50 (Plasmodium falciparum): 2.26 µM
CC[C@H]1N(CC2CCC2)CCC[C@]12CCC(=O)N2Cc1ccncc1 | > 100 | 
CCCc1nc(C)c(C(=O)NCCNc2ncccc2C#N)s1 | > 100 | 
CC(Cn1cccn1)NCCCc1nc(-c2cccs2)no1 (centres undefined) | > 100 | 
Cc1nc(C(C)C)sc1C(=O)NCCNc1ncccc1C#N | > 100 | 
Cc1cnn(CC2CCCCN2Cc2ncc(C(C)(C)C)o2)c1 (centres undefined) | > 100 | 
Cc1nc(C)c(C(=O)NCCNc2ncccc2C(F)(F)F)s1 | > 100 | 
CSC(C)C(=O)N1CCCN(Cc2nccn2C)CC1 (centres undefined) | > 100 | 
O=C(Cc1cccs1)N1C[C@@H]2COC[C@]2(COCc2cccnc2)C1 | > 100 | 
CC(C)c1nc2n(n1)CC(NCc1ncc(C(C)(C)C)o1)CC2 (centres undefined) | > 100 | 
CCc1nnc(CN2CCCCC2Cn2nc(C)nc2C)o1 (centres undefined) | > 100 | 
Cc1ccccc1C(=O)N1C[C@@H]2COC[C@]2(COCc2cccnc2)C1 | > 100 | 
CC(C)C(=O)N1CCN(Cc2csc(-c3ncccn3)n2)CC1 |  | IC50 (Leishmania donovani): > 50.1 µM; pIC50 (Plasmodium falciparum): 5.96; IC50 (Plasmodium falciparum): 1.42 µM
CC(C)c1nc2cc(NC(=O)c3n[nH]c4c3CCC4)ccc2n1C |  | IC50 [4]: > 30.2 µM; pIC50 (Plasmodium falciparum): 6.833 and 6.465
O=C(Nc1cccnc1)C1Cc2nc(-c3ccsc3)sc2N1CC1CC1.O=C(O)C(F)(F)F (centres undefined) |  | pIC50 (Plasmodium falciparum): 5.393; IC50 (Plasmodium falciparum): 3 µM; IC50 (Histidine--tRNA ligase): 27.4 µM and 35.2 µM
